The subject of the assay is facial skin vasodilation induced by electrical trigeminal ganglion stimulation. In words: Facial skin blood flow (vasodilation) after electrical trigeminal ganglion stimulation, laser Doppler flowmetry. Particulars: anaesthetized male Wistar rat, 0.1 mg/kg i.v. 5 min prior to second stimulation. The assay is classed as in vivo.

Experimental: Measurement of Facial Skin Blood Flow
Fasted male wistar rats (strain CHbb:THOM, 280-320 g) were anaesthetized with sodium pentobarbitone (initially with 60 mg/kg i.p. and maintained throughout the experiment with an intraperitoneal infusion of 30 mg/kg/h through a 23 G needle using a solution of 10 mg/ml). […] The trachea was cannulated and the animals were artificially respired (80 strokes/min) with room air supplemented with oxygen. The body temperature was maintained at 37° C. by an automated heating pad. The left femoral artery and the left femoral vein were cannulated for the continuous measurement of arterial blood pressure and intravenous administration of test compounds, respectively. Neuromuscular blockade was achieved by intravenous administration of pancuronium bromide (1 mg/kg/0.5 ml, 5 min prior to each electrical stimulation). Heart rate was derived from the blood pressure signal. Blood pressure and heart rate were continuously monitored throughout the course of the experiment to assess the level of anaesthesia and to monitor the cardiovascular effects of the drugs used in this study.
The animals were placed in a stereotaxic frame and a longitudinal incision was made in the scalp. […] The position of the electrodes in the trigeminal ganglia were checked visually at the end of each experiment following removal of the brain. […]

`CN1C[C@H](C(=O)N[C@]2(C)O[C@@]3(O)[C@@H]4CCCN4C(=O)[C@H](Cc4ccccc4)N3C2=O)C[C@@H]2c3cccc4[nH]cc(c34)C[C@H]21` [DHE, Dihydroergotamin]: for the setting “mean ± spread”, the “% of trigeminus stimulation” value was determined as 60.4 ± 4.1%. Besides, the “% inhibition compared to control value” (vs saline control) is given as 27.0%.

The values are drawn from patent US20060183693A1, “Use of BIBN4096 in combination with other antimigraine drugs for the treatment of migraine” (Boehringer Ingelheim Pharma GmbH & Co. KG, priority 2001, published 2006).
